Assay results published in patent publication US6951848B2, “Functionalized heterocycles as modulators of chemokine receptor function and methods of use therefor” (Millennium Pharmaceuticals, Inc.,, priority 2001, dated 2005).
Counter-ions that a name gives are not always drawn.

How the values were obtained:
CCR-5 = molecular target: T1, CCR-5 (Homo sapiens, UniProt P51681); assay: 125I-gp120/sCD4/CCR-5 receptor binding assay; details: membranes from CCR-5/L 1.2 cells, 3 nM sCD4, 0.1 nM 125I-gp120 (HIV-1 JR-FL); read-out: IC50 for inhibition of binding of sCD-4/GP-120 to CCR-5
T1 construct: expressed in transfected cells; host or cells: L1.2 cells (CCR-5/L1.2 transfectants), membranes
Experimental: CCR-5 Receptor Binding Assay The compounds of the present invention were evaluated using the following CCR-5 receptor binding assay. The ^125I-gp120/sCD4/CCR-5 binding assay was carried out similarly as described in Wu et al., Nature, 1996;384:179-183. Briefly, the envelope gp120 protein derived from HIV-1 JR-FL (Trkola et al., Nature, 1996;384:184-186), an M-tropic strain, was iodinated using solid phase lactoperoxidase to a specific activity of 20 μCi/μg. For each binding reaction (in a final volume of 100 μL binding buffer [50 mM HEPES, pH 7.5, 1 mM CaCl2, 5 mM MgCl2, and 0.5% BSA]), 25 μL (2.5 μg) of membranes prepared from CCR-5/L 1.2 cells were mixed with 25 μL (3 nM) sCD4, followed by 25 μL (0.1 nM) radio-labeled gp120 in the presence or absence of 25 μL compound dissolved in DMSO (final concentration of DMSO 0.5%). The reactions were incubated at room temperature for 45 to 60 minutes and stopped by transferring the mixture to GFB filter plates, which were then washed 3 to 4 times with binding buffer containing 0.5 M NaCl. The plates were dried and MicroScint scintillation fluid was added before counting. […] The compounds of Examples 56 and 66 had IC50s of about […]. […] Preferred compounds can inhibit the binding of sCD-4/GP-120 to CCR-5 with IC50s of about 10 μM to about 100 μM or about 1 nM to about 10 μM

T1 sequence (P51681 whole entry): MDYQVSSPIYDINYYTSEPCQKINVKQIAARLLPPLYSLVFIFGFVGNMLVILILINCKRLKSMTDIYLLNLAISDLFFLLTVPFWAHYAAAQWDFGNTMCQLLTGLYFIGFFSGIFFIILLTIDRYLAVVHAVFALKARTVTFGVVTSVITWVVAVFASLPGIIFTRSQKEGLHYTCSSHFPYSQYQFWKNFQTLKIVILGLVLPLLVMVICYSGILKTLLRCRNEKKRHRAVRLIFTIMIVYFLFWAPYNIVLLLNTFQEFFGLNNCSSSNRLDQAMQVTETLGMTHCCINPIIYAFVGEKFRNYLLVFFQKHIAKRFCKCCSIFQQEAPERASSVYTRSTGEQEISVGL

| SMILES | melting point | IC50 (CCR-5) |
| --- | --- | --- |
| Cc1[nH]c2ccc(CN)cc2c1C(=O)OCc1ccccc1.Cl | 260 to 261 °C | – |
| CCN(CC)CCc1ccc2[nH]c(C)c(C(=O)O[C@@H](C)c3ccccc3)c2c1.Cl | 95 to 97 °C | – |
| Cc1[nH]c2ccc(OCCN3CCOCC3)cc2c1C(=O)OC(C)c1ccccc1.Cl (stereo not drawn) | 45 to 55 °C | – |
| Cc1[nH]c2ccc(OCCN3CCCC3)cc2c1C(=O)OC(C)c1ccccc1.Cl (stereo not drawn) | 75 to 80 °C | – |
| Cc1[nH]c2ccc(OCCN3CCNCC3)cc2c1C(=O)OCc1ccccc1 (as salt: hydrochloride) [Example 2, 1-[2-(3-benzyloxycarbonyl-2-methyl-1H-indole-5-yloxy)-ethyl]-piperazin-1-ium; Chloride] | 225 to 229 °C (dec.) | – |
| Cc1[nH]c2ccc(OCCN3CCN(C(=O)OC(C)(C)C)CC3)cc2c1C(=O)OCc1ccccc1 [Example 1, 5-[2-(4-tert-Butoxycarbonyl-piperazin-1-yl)-ethoxy]-2-methyl-1H-indole-3-carboxylic acid benzyl ester] | 136 to 137 °C | – |
| Cc1[nH]c2ccc(OCCN3CCN(C)CC3)cc2c1C(=O)OCc1ccccc1 [Example 3, 2-Methyl-5-[2-(4-methyl-piperazin-1-yl)-ethoxy]-1H-indole-3-carboxylic acid benzyl ester] | 143 to 145 °C | – |
| Cc1[nH]c2ccc(OCCN3CCC(C)C3)cc2c1C(=O)OCc1ccccc1 (stereo not drawn) [Example 4, 2-Methyl-5-[2-(3-methyl-pyrrolidin-1-yl)-ethoxy]-1H-indole-3-carboxylic acid benzyl ester] | 121 to 122 °C | – |
| Cc1[nH]c2ccc(OCCN3CCC(c4ccccc4)C3)cc2c1C(=O)OCc1ccccc1.Cl (stereo not drawn) [Example 5, 1-[2-(3-benzyloxycarbonyl-2-methyl-1H-indol-5-yloxy)-ethyl]-3-phenyl-pyrrolidinium; Chloride] | 118 to 121 °C | 18 µM |
| Cc1[nH]c2ccc(OCCN(C(C)C)C(C)C)cc2c1C(=O)OCc1ccccc1 [Example 6, 5-(2-Diisopropylamino-ethoxy)-2-methyl-1H-indole-3-carboxylic acid benzyl ester] | 121 to 123 °C | – |
| CCN(CC)CCOc1ccc2c(c1)c(C(=O)OCc1ccccc1)c(C)n2Cc1ccccc1 [Example 7, 1-Benzyl-5-(2-diethylamino-ethoxy)-2-methyl-1H-indole-3-carboxylic acid benzyl ester] | 74 to 76 °C | 18.2 µM |
| CCN(CC)CCOc1ccc2c(c1)c(C(=O)OCc1ccccc1)c(C)n2C [Example 8, 1-Methyl-5-(2-diethylamino-ethoxy)-2-methyl-1H-indole-3-carboxylic acid benzyl ester] | 73 to 74 °C | – |
| CCC(Oc1ccc2[nH]c(C)c(C(=O)OCc3ccccc3)c2c1)C(=O)N(CC)CC (stereo not drawn) [Example 9, 5-(1-Diethylcarbamoyl-propoxy)-2-methyl-1H-indole-3-carboxylic acid benzyl ester] | 129 to 131 °C | – |
| Cc1[nH]c2ccc(OCCCCN3CCCC3)cc2c1C(=O)OCc1ccccc1 [Example 10, 2-Methyl-5-(4-pyrrolidin-1-yl-butoxy)-1H-indole-3-carboxylic acid benzyl ester] | 152 to 155 °C | – |
| Cc1[nH]c2ccc(OCCN3CCCCCC3)cc2c1C(=O)OCc1ccccc1 [Example 11, 5-(2-Azepan-1-yl-ethoxy)-2-methyl-1H-indole-3-carboxylic acid benzyl ester] | 141 to 142 °C | – |
| Cc1[nH]c2ccc(OCCN3CCCCC3)cc2c1C(=O)OCc1ccccc1 [Example 12, 2-Methyl-5-(2-piperidin-1-yl-ethoxy)-1H-indole-3-carboxylic acid benzyl ester] | 140 to 141 °C | – |
| CCN(CC)CCOc1ccc2[nH]c(C)c(C(=O)OCc3ccccc3)c2c1 [Example 13, 5-(2-Diethylamino-ethoxy)-2-methyl-1H-indole-3-carboxylic acid benzyl ester] | 125 to 126 °C | – |
| Cc1[nH]c2ccc(OCCN3CC(C)(C)C(C)(C)C3)cc2c1C(=O)OCc1ccccc1 [Example 14, 2-Methyl-5-[2-(3,3,4,4-tetramethyl-pyrrolidin-1-yl)-ethoxy]-1H-indole-3-carboxylic acid benzyl ester] | 181 to 182 °C | – |

| SMILES | melting point | IC50 (CCR-5) |
| --- | --- | --- |
| Cc1[nH]c2ccc(OCCN3CCCC3c3ccccc3)cc2c1C(=O)OCc1ccccc1 (stereo not drawn) [Example 15, 2-Methyl-5-[2-(2-phenyl-pyrrolidin-1-yl)-ethoxy]-1H -indole-3-carboxylic acid benzyl ester] | 141 to 142 °C | – |
| Cc1[nH]c2ccc(OCCN3CC[C@H](CO)C3)cc2c1C(=O)OCc1ccccc1 [Example 16, 5-[2-((S)-3-Hydroxymethyl-pyrrolidin-1-yl)-ethoxy]-2-methyl-1H -indole-3-carboxylic acid benzyl ester] | 126 to 127 °C | – |
| Cc1[nH]c2ccc(OCCN3CCCC3c3cccnc3)cc2c1C(=O)OCc1ccccc1 (stereo not drawn) [Example 17, 2-Methyl-5-[2-(2-pyridin-3-yl-pyrrolidin-1-yl)-ethoxy]-1H-indole-3-carboxylic acid benzyl ester] | 126 to 127 °C | – |
| CCCN(CCC)CCOc1ccc2[nH]c(C)c(C(=O)OCc3ccccc3)c2c1 [Example 18, 5-(2-Dipropylamino-ethoxy)-2-methyl-1H-indole-3-carboxylic acid benzyl ester] | 123 to 125 °C | – |
| Cc1[nH]c2ccc(NCCN3CCCC3)cc2c1C(=O)OCc1ccccc1 [Example 20, 2-Methyl-5-(2-pyrrolidine-1-yl-ethylamino)-1H-indole-3-carboxylic acid benzyl ester] | – | 17.5 µM |
| Cc1[nH]c2ccc(CCN3CCCC3)cc2c1C(=O)OCc1ccccc1.Cl [Example 56, 2-Methyl-5-(2-pyrrolidin-1-yl-ethyl)-1H-indole-3-carboxylic acid benzyl ester hydrochloride] | 76 to 78 °C | ~4.8 µM |
| Cc1[nH]c2ccc(CCN3CCN(C)CC3)cc2c1C(=O)OCc1ccccc1 [Example 57, 2-Methyl-5-[2-(4-methyl-piperazin-1-yl)-ethyl]-1H-indole-3-carboxylic acid benzyl ester] | 167 to 168 °C | – |
| Cc1[nH]c2ccc(CCN(C)C3CCCCC3)cc2c1C(=O)OCc1ccccc1 [Example 58, 5-[2-(Cyclohexyl-methyl-amino)-ethyl]-2-methyl-1H-indole-3-carboxylic acid benzyl ester] | 122 to 124 °C | – |
| Cc1[nH]c2ccc(CCN3CCCCC3)cc2c1C(=O)OCc1ccccc1 [Example 59, 2-Methyl-5-(2-piperidin-1-yl-ethyl)-1H-indole-3-carboxylic acid benzyl ester] | 159 to 161 °C | – |
| Cc1[nH]c2ccc(CCN(CC(C)C)CC(C)C)cc2c1C(=O)OCc1ccccc1 [Example 60, 5-(2-Diisobutylamino-ethyl)-2-methyl-1H-indole-3-carboxylic acid benzyl ester] | 134 to 135 °C | – |
| CNCCc1ccc2[nH]c(C)c(C(=O)OCc3ccccc3)c2c1 [Example 61, 2-Methyl-5-(2-methylamino-ethyl)-1H-indole-3-carboxylic acid benzyl ester] | 65 to 68 °C | – |
| Cc1[nH]c2ccc(CCN(C)C3CCOCC3)cc2c1C(=O)OCc1ccccc1 [Example 62, 2-Methyl-5-{2-[methyl-(tetrahydro-pyran-4-yl)-amino]-ethyl}-1H-indole-3-carboxylic acid benzyl ester] | 109 to 111 °C | 13.9 ± 1.6 µM |
| CCN(CC)Cc1ccc2[nH]c(C)c(C(=O)OCc3ccccc3)c2c1 [Example 64, 5-Diethylaminomethyl-2-methyl-1H-indole-3-carboxylic acid benzyl ester] | 106 to 108 °C | – |
| Cc1[nH]c2ccc(OCCN(C)C)cc2c1C(=O)O[C@@H](C)c1ccccc1 [Example 66, 5-(2-Dimethylamino-ethoxy)-2-methyl-1H-indole-3-carboxylic acid (S)-1-phenyl-ethyl ester] | 135 to 140 °C | ~4.8 µM |
| Cc1[nH]c2ccc(OCCN3CCCC3)cc2c1C(=O)OCc1ccccc1 [Example 69, 2-Methyl-5-(pyrrolidin-1-yl-ethoxy)-1H-indole-3-carboxylic acid benzyl ester] | 110 to 116 °C | 20.3 ± 2.8 µM |
| Cc1[nH]c2ccc(OC(C)C(C)N3CCCC3)cc2c1C(=O)OCc1ccccc1 (stereo not drawn) [Example 70, 2-Methyl-5-(1-methyl-2-pyrrolidin-1-yl-propoxy)-1H-indole-3-carboxylic acid benzyl ester] | 94 to 98 °C | 5.52 ± 1.1 µM |
| Cc1[nH]c2ccc(CCNC3CCCCC3)cc2c1C(=O)OCc1ccccc1 [Example 71, 5-(2-Cyclohexylamino-ethyl)-2-methyl-1H-indole-3-carboxylic acid benzyl ester] | 97 to 100 °C | – |
